According to patent publication US11479559B2, “Urea-substituted aromatic ring-linked dioxinoquinoline compounds, preparation method and uses thereof” (BEIJING SCITECH-MQ PHARMACEUTICALS LIMITED, priority 2018, dated 2022):

Legend:
RET tyrosine kinase = RET tyrosine kinase (Homo sapiens (Human), UniProt P07949); assay: Assay of small molecular compounds for inhibiting the activity of RET kinase (LANCE TR-FRET); conditions: read-out: RET IC50
VEGFR2 tyrosine kinase = VEGFR2 tyrosine kinase (Homo sapiens (Human), UniProt P35968); assay: Assay of small molecular compounds for inhibiting the activity of VEGFR-2 kinase (LANCE TR-FRET); conditions: read-out: VEGFR-2 IC50
Chain of VEGFR2 tyrosine kinase (P35968 20-1356): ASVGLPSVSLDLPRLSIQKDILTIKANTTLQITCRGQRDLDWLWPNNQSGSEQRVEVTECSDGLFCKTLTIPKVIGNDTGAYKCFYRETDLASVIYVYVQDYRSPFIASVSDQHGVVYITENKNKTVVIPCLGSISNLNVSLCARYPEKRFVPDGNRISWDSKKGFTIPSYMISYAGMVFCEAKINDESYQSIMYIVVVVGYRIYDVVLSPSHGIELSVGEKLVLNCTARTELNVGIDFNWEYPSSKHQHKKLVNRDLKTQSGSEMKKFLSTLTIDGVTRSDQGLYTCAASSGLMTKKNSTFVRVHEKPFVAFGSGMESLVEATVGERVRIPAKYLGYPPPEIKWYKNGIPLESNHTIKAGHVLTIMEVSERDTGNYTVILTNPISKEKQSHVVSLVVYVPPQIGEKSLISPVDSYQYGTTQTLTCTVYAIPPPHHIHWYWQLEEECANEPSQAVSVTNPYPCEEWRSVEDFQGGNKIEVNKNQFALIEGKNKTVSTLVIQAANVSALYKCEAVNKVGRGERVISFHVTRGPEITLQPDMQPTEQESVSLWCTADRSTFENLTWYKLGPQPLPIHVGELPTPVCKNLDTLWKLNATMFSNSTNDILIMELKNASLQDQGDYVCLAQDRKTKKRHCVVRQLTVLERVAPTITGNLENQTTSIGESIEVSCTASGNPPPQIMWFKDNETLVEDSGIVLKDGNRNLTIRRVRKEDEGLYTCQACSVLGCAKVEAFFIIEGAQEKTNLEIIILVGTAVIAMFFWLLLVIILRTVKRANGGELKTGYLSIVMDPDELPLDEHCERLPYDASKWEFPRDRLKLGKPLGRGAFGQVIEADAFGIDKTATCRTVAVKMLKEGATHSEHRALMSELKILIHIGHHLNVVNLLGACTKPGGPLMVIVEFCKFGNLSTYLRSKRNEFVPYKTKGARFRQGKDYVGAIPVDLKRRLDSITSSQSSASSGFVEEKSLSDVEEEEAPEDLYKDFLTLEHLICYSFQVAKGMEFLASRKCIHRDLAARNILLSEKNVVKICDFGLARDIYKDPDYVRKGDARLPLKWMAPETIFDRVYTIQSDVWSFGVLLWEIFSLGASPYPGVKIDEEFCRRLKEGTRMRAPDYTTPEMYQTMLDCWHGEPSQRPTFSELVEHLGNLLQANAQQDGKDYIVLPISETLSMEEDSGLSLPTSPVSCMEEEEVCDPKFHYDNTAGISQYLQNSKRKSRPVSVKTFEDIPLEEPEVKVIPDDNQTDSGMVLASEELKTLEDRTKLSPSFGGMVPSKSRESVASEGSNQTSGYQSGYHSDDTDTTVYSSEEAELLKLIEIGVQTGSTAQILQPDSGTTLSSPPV
Method: The assay is based on the LANCE TR-FRET technology of Perkin Elmer Inc., and the assay method is as follows:
2.5 μL of the gradient-diluted compounds were taken with a transfer pipette to a 384-well plate.
Addition of enzyme: 5 μL of 2× VEGFR2 kinase solution (concentration was 0.5 nM) was taken with a transfer pipette to the corresponding reaction well of the 384-well plate, mixed well and pre-reacted at room temperature for 30 minutes.
2.5 μL 4× Ultra ULight™-JAK-1 (Tyr1023) Peptide (concentration was 200 nM)/ATP (concentration was 40 μMM) mixture was taken with a transfer pipette to the corresponding reaction well of the 384-well plate.
Negative control: 2.5 μL/well 4× substrate/ATP mixture and 7.5 μL 1× Kinase Assay Buffer were added to the wells of the 384-well plate.
The final concentration of DMSO in the reaction system was 4%.
The mixture was mixed well and then centrifuged and reacted at room temperature in dark for 60 min.
The 384-well plate was placed into the Envision plate reader and the signal was detected using the appropriate program.

Chain of RET tyrosine kinase (P07949 29-1114): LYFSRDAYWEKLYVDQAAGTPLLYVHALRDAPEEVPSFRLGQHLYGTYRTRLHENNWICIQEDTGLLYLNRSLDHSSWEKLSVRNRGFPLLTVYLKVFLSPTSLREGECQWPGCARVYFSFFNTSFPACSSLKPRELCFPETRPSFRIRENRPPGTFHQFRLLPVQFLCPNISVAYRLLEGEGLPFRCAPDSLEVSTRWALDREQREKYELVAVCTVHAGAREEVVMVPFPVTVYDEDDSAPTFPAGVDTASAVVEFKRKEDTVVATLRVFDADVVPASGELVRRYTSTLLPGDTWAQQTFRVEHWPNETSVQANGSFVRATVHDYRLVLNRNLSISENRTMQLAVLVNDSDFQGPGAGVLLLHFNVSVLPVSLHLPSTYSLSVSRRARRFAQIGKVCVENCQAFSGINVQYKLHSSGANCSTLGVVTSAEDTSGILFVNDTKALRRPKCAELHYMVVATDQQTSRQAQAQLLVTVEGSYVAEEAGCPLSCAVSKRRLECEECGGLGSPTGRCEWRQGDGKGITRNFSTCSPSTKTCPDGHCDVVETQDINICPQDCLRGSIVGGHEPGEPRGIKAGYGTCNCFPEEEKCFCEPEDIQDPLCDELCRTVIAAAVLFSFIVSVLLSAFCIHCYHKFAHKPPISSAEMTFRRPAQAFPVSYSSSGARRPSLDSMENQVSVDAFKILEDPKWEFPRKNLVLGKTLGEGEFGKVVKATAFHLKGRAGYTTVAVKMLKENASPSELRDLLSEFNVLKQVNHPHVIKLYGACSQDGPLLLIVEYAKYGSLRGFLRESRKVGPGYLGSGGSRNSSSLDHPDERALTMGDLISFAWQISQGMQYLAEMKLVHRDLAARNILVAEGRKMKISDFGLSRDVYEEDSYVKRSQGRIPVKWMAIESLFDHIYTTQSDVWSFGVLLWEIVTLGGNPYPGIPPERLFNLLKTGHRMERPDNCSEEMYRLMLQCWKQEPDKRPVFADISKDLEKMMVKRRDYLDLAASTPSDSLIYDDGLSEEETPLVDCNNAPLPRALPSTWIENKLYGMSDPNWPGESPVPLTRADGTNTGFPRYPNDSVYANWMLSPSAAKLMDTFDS

Row | IC50 (RET tyrosine kinase) [nM] | IC50 (VEGFR2 tyrosine kinase) [nM] | Structure (SMILES)
1 | < 50 | < 50 | CN(CCCOc1cc2nccc(Oc3ccc(NC(=O)NC4CC4)c(Cl)c3)c2c2c1OCCO2)C1CCC1 [Example 63, 1-(2-chloro-4-((5-(3-(cyclobutyl(methyl)amino)propoxy)-2,3-dihydro-[1,4]dioxino[2,3-f]quinolin-10-yl)oxy)phenyl)-3-cyclopropylurea]
2 | < 50 | < 50 | CC1(N)CCN(CCCOc2cc3nccc(Oc4ccc(NC(=O)Nc5ccc(Cl)c(C(F)(F)F)c5)cc4)c3c3c2OCCO3)CC1 [Example 26, 1-(4-((5-(3-(4-amino-4-methylpiperidin-1-yl)propoxy)-2,3-dihydro-[1,4]dioxino[2,3-f]quinolin-10-yl)oxy)phenyl)-3-(4-chloro-3-(trifluoromethyl)phenyl)urea]
3 | < 50 | < 50 | CCOc1cc2nccc(Oc3ccc(NC(=O)NC4CC4)c(Cl)c3)c2c2c1OCCO2 [Example 43, 1-(2-chloro-4-((5-ethoxy-2,3-dihydro-[1,4]dioxino[2,3-f]quinolin-10-yl)oxy)phenyl)-3-cyclopropylurea]
4 | < 50 | < 50 | CC(C)CNC(=O)Nc1ccc(Oc2ccnc3cc(OCCCN4CCOCC4)c4c(c23)OCCO4)cc1Cl [Example 89, 1-(2-chloro-4-((5-(3-morpholinopropoxy)-2,3-dihydro-[1,4]dioxino[2,3-f]quinolin-10-yl)oxy)phenyl)-3-isobutylurea]
